Results taken from paper PMC3966265, “Phosphorylation of Arabidopsis transketolase at Ser^428 provides a potential paradigm for the metabolic control of chloroplast carbon metabolism” (Biochemical Journal, 2014).

Key:
Type in all cases: biochemical
cpCKII = target: T1, cpCKII (Arabidopsis thaliana, UniProt O64816); experiment: […] phosphorylation of recombinant AtTKL1, SDS/PAGE autoradiogram; settings: labelled compound; 10 mM MgCl2; pH 7.6; 22 °C; with calcium or EGTA
T1 construct: gene CKA4; mature form lacking N-terminal 85 residues; N-terminal GST fusion (pGEX4-T1) kept; E. coli
T1 sequence (O64816 86-432): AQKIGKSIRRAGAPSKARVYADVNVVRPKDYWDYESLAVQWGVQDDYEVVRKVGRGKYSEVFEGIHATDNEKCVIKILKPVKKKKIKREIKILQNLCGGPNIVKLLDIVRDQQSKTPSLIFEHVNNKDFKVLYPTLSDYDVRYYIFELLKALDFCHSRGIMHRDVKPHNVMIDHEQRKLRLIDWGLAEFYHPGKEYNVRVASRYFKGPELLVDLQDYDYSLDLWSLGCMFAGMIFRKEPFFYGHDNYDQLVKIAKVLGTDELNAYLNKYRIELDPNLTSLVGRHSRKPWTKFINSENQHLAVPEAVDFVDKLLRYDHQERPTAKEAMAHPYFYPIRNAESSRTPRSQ

AtTKL1 [1] = target: T2, AtTKL1 (Arabidopsis thaliana, UniProt Q8RWV0); experiment: coupled NAD reduction assay with E. coli E4PDH, A340; settings: 2 mM G3P; 0.1 mM TPP; 15 mM MgCl2; 5 mM CaCl2; pH 7.2 and 8.0; 30 °C
T2 construct: gene TKL-1; mature form lacking N-terminal 67 residues (chloroplast-targeting peptide); N-terminal intein tag cleaved; E. coli ER2566; 73 kDa; homodimer
T2 sequence (Q8RWV0 68-741): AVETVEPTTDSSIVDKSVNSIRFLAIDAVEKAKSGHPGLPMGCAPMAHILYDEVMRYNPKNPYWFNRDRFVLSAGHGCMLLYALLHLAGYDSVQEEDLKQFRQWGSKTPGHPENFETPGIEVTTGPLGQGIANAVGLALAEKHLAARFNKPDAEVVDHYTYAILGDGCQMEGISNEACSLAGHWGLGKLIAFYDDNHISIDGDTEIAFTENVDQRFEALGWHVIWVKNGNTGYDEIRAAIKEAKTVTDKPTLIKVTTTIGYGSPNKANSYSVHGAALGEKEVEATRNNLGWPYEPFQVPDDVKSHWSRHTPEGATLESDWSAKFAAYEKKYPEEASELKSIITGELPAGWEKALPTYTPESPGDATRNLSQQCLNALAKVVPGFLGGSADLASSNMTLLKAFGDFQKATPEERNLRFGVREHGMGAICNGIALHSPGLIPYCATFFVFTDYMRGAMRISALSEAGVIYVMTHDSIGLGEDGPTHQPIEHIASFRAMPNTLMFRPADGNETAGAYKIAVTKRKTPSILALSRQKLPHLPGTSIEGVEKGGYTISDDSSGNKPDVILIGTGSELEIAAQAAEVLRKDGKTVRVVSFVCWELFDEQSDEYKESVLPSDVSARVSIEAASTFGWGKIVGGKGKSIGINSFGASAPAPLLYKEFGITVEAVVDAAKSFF

AtTKL1 [2] = target: T3, AtTKL1 (Arabidopsis thaliana, UniProt Q8RWV0, S428D); experiment: as above; settings: phosphomimetic mutant; 2 mM G3P; 0.1 mM TPP; 15 mM MgCl2; 5 mM CaCl2; pH 7.2 and 8.0; 30 °C
T3 construct: gene TKL-1; mature form lacking N-terminal 67 residues (chloroplast-targeting peptide); N-terminal intein tag cleaved; E. coli ER2566; 73 kDa; homodimer
T3 sequence (Q8RWV0 68-741 S428D): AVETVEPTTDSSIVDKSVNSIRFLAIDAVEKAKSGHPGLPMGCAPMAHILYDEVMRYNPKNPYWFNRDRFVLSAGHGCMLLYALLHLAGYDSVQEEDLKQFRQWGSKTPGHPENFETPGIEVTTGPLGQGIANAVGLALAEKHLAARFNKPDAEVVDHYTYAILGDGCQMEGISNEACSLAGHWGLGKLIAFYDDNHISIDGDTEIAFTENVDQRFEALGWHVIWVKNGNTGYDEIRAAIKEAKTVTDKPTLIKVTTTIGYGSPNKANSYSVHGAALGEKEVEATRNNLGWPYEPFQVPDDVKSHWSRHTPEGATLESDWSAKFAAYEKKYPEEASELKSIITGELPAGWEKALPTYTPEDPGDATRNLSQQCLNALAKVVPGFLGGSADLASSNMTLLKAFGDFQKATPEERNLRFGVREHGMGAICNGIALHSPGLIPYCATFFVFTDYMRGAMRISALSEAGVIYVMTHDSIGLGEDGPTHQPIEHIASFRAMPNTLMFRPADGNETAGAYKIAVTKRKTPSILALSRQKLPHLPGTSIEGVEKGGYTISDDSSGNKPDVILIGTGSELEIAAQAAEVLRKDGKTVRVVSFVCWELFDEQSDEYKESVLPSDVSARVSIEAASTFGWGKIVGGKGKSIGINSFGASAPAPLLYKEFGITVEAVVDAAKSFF

SMILES | 32P phosphorylation of recombinant AtTKL1, SDS/PAGE autoradiogram (cpCKII) | KmF6P (AtTKL1 [1]) | KmF6P (AtTKL1 [2])
Nc1ncnc2c1ncn2[C@@H]1O[C@H](COP(=O)(O)OP(=O)(O)OP(=O)(O)O)[C@@H](O)[C@H]1O [ATP] | cpCKII was able to phosphorylate recombinant AtTKL1 (Figure 2F, arrowheads) |  | 
O=P(O)(O)OC[C@H]1OC(O)(CO)[C@@H](O)[C@@H]1O (stereo partly shown) [F6P] |  | the wild-type enzyme had higher KmF6P and VmaxF6P values | higher KmF6P and VmaxF6P values compared with the phosphomimetic mutant
Nc1nc2c(ncn2[C@@H]2O[C@H](COP(=O)(O)OP(=O)(O)OP(=O)(O)O)[C@@H](O)[C@H]2O)c(=O)[nH]1 [GTP] | recombinant cpCKII was able to utilize GTP |  | 
